Assay [1] concerns MDCK/kidney non-cancerous cells. The assay is described as follows: MTT-cell proliferation assay on non-cancerous cell line. The class given is cell-based. The note with it: 48 h drug exposure, mean ± SEM. The text has this:
(§1) The potential anti-cancer activity of all fourteen final synthesized compounds was investigated through MTT cytotoxic assay against two different human solid cancerous cell lines; A549/lung and MDA-MB-231/breast adenocarcinoma. The adopted cell-proliferation assay assessed % cell viability in relation to the reducing activity of cellular NADPH-dependent cellular oxidoreductases on tetrazolium dye, MTT [2,5-diphenyl-3-(4,5-dimethylthiazol-2-yl)tetrazolium bromide salt], for furnishing an easily quantified insoluble chromogenic formazan. For each drug concentration, 0.1, 1, 10, and 100 μM, the % cell-viability was estimated relative to negative control following a complete 48 h of drug treatment. Both 5-fluorouracil (5-FU) and doxorubicin (DOX) were set as positive index comparators. Moreover, the safety profile of the synthesized compounds was further investigated by examining their in-vitro cytotoxicity on non-cancerous cell line; MDCK/kidney cells.
(§2) Evaluating the cytotoxicity of tested compounds on two cancer cell lines (A549/lung and MDA-MB-231/breast adenocarcinoma) and non-cancerous (MDCK/kidney cells) was performed while adopting the formerly described method with small alterations. Cancer cell lines were propagated within Dulbecco’s Modified Eagle Medium-High Glucose (Cat.#: P0103; DMEM_High Glucose with Na.Pyruvate and stable Glutamine, Biowest^TM, Nuaillé, France), while MDA-MB-231 cells were propagated within RPMI-1640 L-Glutamine medium (Cat.#:12-604F; Lonza-Verviers SPRL^TM, Verviers, Belgium). The culturing media were supplemented via 1% antibiotic-antimycotic 100X (Cat.#: L0010; Biowest^TM, Nuaillé, France) and 10% fetal bovine serum (FBS) (Cat.#: EU-000-H; Seralab^TM, West Sussex, UK). Cells were seeded as triplicates within 96-well plate, at 1 × 10^4 cells per well density, after being counted and viability checked using the trypan blue staining solution (Cat.# ab233465; Abcam^TM, Cambridge, MA, USA). Seeded cells were permitted to adhere for 24 h under 5% CO2 and at 37 °C incubating conditions. The assigned compounds were dissolved in 500 µL DMSO affording the stock solution (100 mM) being ready for more diluting within the whole medium to obtain the compound’s final concentrations; 0.1, 1, 10, 100 µM for cell treatments. […] Following 24 h compound-cell treatment, the medium was substituted by fresh one and cells were permitted to develop for 48 h. At four hours prior the end of incubation, 10 μL MTT Sigma-Aldrich^TM (5 mg/mL in PBS 1X without magnesium and calcium; Cat.# 17-516F, Lonza-Verviers^TM, Basel, Switzerland) were added to all wells. Following the complete 48 h incubation, 100 μL DMSO was all added to all wells where they were subsequently centrifuged at 4000 rpm for 5 min allowing the formazan crystals of formazan to precipitate. Color was established and intensities were recorded at 490 nm using Synergy-Neo2® Hybrid MultiMode Plate Reader (BioTek^TM, Winooski, VT, USA), while subtracting the multi-well plates background absorbance at 690 nm. Percentage cell viability was estimated using the subsequent formula: % cell-viability = (average absorbance of treated wells/average absorbance of controls) × 100.
Background: Tetrazolium dyes change colour on reduction, which living cells bring about.

A further assay deals with A549/lung adenocarcinoma. Put plainly: Morphological assessment. The class given is cell-based, human. The note with it: 0.1-100 µM (5-FU 100 µM), 48 h, phase-contrast microscope.
For assay [2], the system named is A549/lung adenocarcinoma cells. Put plainly: MTT-cell proliferation assay. The assay is classed as cell-based, human. The note with it: Homo sapiens, A549, 48 h drug exposure, mean of three experiments ± SEM.
Description: as §1, §2

Assay [3] relates to MDA-MB-231/breast cancer cells. Put plainly: MTT-cell proliferation assay. The class given is cell-based, human. The note with it: 48 h drug exposure, mean of three experiments ± SEM.
Description: as §1, §2

Assay [4] has as its system MDA-MB-231/breast cancer cells. The assay is described as follows: SRB cytotoxicity assay. The note with it: Homo sapiens; MDA-MB-231, 72 h exposure. The class given is cell-based. The protocol:
MDA-MB-231: Breast Cancer cell line was obtained from Nawah^TM Scientific Inc., (Cairo, Egypt). Cells were maintained within DMEM provided by 100 units/mL of penicillin, […], and 10% of heat-inactivated FBS within 5% (v/v) CO2 humidified atmosphere (37 °C). The validity of cell line was evaluated adopting the previously reported approach. Briefly, an accurate volume (100 μL) of cell line suspension (5 × 10^3 cells) was placed in 96-well plates and incubated for 24 h within complete media. Cell line suspensions were then treated with another 100 μL media spiked with various drug concentrations (0.01, 0.1, 1, 10, 100 μM/mL) and kept for 72 h. Then the media were replaced with 150 μL of 10% trichloroacetic acid (TCA) for fixing cells through subsequent 1 h incubation at 4 °C [74]. Following incubation, TCA was removed, and cells were washed via distilled water 5 times. Aliquots of 70 μL SRB solution (0.4% w/v; Cat.# S1402; Sigma-Aldrich^TM, Taufkirchen, Germany) were added and cell were then incubated in dark for 10 min at 25 °C. Plates were subjected to triplicate washing via 1% acetic acid and then permitted to be air-dried overnight. Protein-bound SRB stain was extracted by addition of tris base (150 μL, 10 mM) and the absorbance was measured at 540 nm using FLUOstar-Omega® microplate reader (BMG-Labtech^TM GmbH, Ortenberg, Germany).
A general note: Sulforhodamine B stains cellular protein and so reports cell mass.

Assay [5] relates to MDA-MB-231/breast cancer cell line. The assay is described as follows: Cell cycle analysis, propidium iodide flow cytometry. The class given is cell-based, human. As to conditions: 13 µM, 48 h. The text has this: Using flow cytometry, apoptosis rate analysis was proceeded through staining the cell surface-translocating phosphatidylserine with Annexin-V fluorescent conjugate, the calcium-dependent phospholipid binding protein [32]. However, cell cycle analysis was achieved using propidium iodine fluorescent dye to stoichiometrically stain cell DNA contents allowing quantitation and identification of all cell phase rates; G0-G1, S, G2/M, and pre-G1 [33, 34]. […] For identifying the mode of cell death promoted by 8b within MDA-MB-231/breast cancer cells, apoptosis rate analysis was performed following 48 h exposure time. […] Moreover, the average proportion of Annexin-V stained positive cells (total apoptotic cells) elevated from 1.72% within untreated cells to 18.93% in treated ones (p < 0.001). […] The above provided findings are supported by the previous cell cycle analysis confirming the potentiality of 8b as promising anticancer agent.
Apoptotic assay and cell cycle analysis were proceeded according to previous literatures. […] Following incubation, MDA-MB-231 cells were trypsinized, harvested, and fixed according to information cited within Annexin® V-FITC Detection Kit (Cat.#: K101-25, BioVision^TM, Milpitas, CA, USA), for quantifying cell’s DNA contents being treated with 8b relative to control sample using propidium iodide stain (Cat.#: ab139418; Abcam^TM, Cambridge, MA, USA). […]
(A flow cytometer gives signals particle by particle.)

Experimental findings from PMC7912796, “Design, Synthesis, Anticancer Activity, and Solid Lipid Nanoparticle Formulation of Indole- and Benzimidazole-Based Compounds as Pro-Apoptotic Agents Targeting Bcl-2 Protein” (Pharmaceuticals, 2021) are described below.

The term IC50 denotes the midpoint of a concentration-inhibition curve. Consider `CCCc1ccc(-c2nn(-c3ccccc3)cc2C=NNC(=O)c2cc3ccccc3[nH]2)cc1` [Compound 8b, N′-((1-phenyl-3-(4-propylphenyl)-1H-pyrazol-4-yl)methylene)-1H-indole-2-carbohydrazide], for which the IC50 is 92.75 ± 0.43 µM in assay [1]; 92 µM in assay [1] (Canis lupus familiaris, MDCK, 48 h); 23.1 ± 1.45 µM in assay [2]; 12.7 ± 2.48 µM in assay [3]; around 13 µM in assay [3] (Homo sapiens, MDA-MB-231, 48 h); 12.4 ± 0.5 µM in assay [4]. Besides, the cell morphology alterations result with A549/lung adenocarcinoma is given as “Comparable cell morphology changes”. Besides, the “cell population at pre-G1 stage” value in assay [5] was 1.72%. Besides, the “cell population at G2/M stage” value in assay [5] (untreated 6.15%) was found to be 25.32%.
